A short description of series [1]: Evaluation of solubility of two-photon absorption compound in dichloromethane. It counts as physicochemical. The settings on record: invention compounds compared with Comparative Compound R-1. How it is done:
Compounds D-1, D-2, D-6 and D-29 of the present invention and Comparative Compound R-1 for dichloromethane were evaluated for the solubility (room temperature).

Series [2] in a line: Two-photon absorption cross-sectional area by the Z scanning method. Format: physicochemical. The conditions noted are these: measurement wavelength 405 nm; chloroform solution, about 1×10^−3 mol/l; 1 GM = 1 × 10^−50 cm^4 s molecule^−1 photon^−1. Here is the method: The measurement of the two-photon absorption cross-sectional area of the synthesized compound was performed by the Z scanning method described in MANSOOR SHEIK-BAHAE et al., IEEE. Journal of Quantum Electronics, 1990, 26, 760. The Z scanning method is a method widely used as the measuring method of a non-linear optical constant, where in the vicinity of the focus of converged laser beam, a measurement sample is moved along the beam and the change in the quantity of transmitted light is recorded. Since the power density of incident light changes depending upon the position of the sample, when non-linear absorption is present, the quantity of transmitted light attenuates in the vicinity of the focus. The two-photon absorption cross-sectional area was computed by fitting the change in the quantity of transmitted light to a theoretical curve predicted from the incident light intensity, the light converging spot size, the sample thickness and the sample concentration. As the light source for the measurement of two-photon absorption cross-sectional area, a Ti:sapphire pulsed laser (pulse width: 100 fs, repetition: 80 MHz, average output: 1 W, peak power: 100 kW) obtained by combining a […] and a light parametric amplifier was used. As the sample for the measurement of two-photon absorption cross-sectional area, a solution obtained by dissolving the compound in chloroform in a concentration of about 1×10^−3 mol/l was used.
The two-photon absorption cross-sectional areas of Compounds D-1, D-2, D-6 and D-29 of the present invention and Comparative Compound R-1 [recited as Compound D-1 in Patent Document 5 (JP-A-2010-108588)] are shown in Table 1 below.

Consider `N#Cc1ccc(-c2ccc(-c3ccc(-c4ccc(C(=O)c5ccccc5)cc4)cc3)cc2)cc1` [Compound R-1, reference compound], for which the “Solubility (in words)” value in series [1] is “low”. For the same compound, in series [2], the “Two-Photon Absorption Cross-Sectional Area” value was determined as 1700 GM.

Take `CCCCC(CC)COc1ccc(C(=O)c2ccc(-c3ccc(-c4ccc(-c5ccc(C#N)cc5)cc4)cc3)cc2)cc1` [Compound D-1]: the “Solubility (in words)” value in series [1] is “high solubility”. For the same compound, the “Two-Photon Absorption Cross-Sectional Area” value in series [2] was 900 GM.

Turning to `COCCOCCOCCOCCOCCOc1ccc(C(=O)c2ccc(-c3ccc(-c4ccc(-c5ccc(C#N)cc5)cc4)cc3)cc2)cc1` [Compound D-2], the “Solubility (in words)” value in series [1] was “high solubility”. In addition, the “Two-Photon Absorption Cross-Sectional Area” value in series [2] turned out to be 860 GM.

As for `COc1cc(-c2ccc(-c3ccc(C(=O)c4ccc(OCCOCCOC(C)=O)c(OCCOCCOC(C)=O)c4)cc3)c(OC)c2)ccc1-c1ccc(C(=O)c2ccc(OCCOCCOC(C)=O)c(OCCOCCOC(C)=O)c2)cc1` [Compound D-29], in series [1], the “Solubility (in words)” value is given as “high solubility”. Further, the “Two-Photon Absorption Cross-Sectional Area” value in series [2] amounted to 2000 GM.

`CCCCC(CC)COc1ccc(C(=O)c2ccc(-c3ccc(-c4ccc(-c5ccc(C#N)cc5)c(OC)c4)cc3OC)cc2)cc1` [Compound D-6]: the “Solubility (in words)” value in series [1] is given as “high solubility”. In series [2], the “Two-Photon Absorption Cross-Sectional Area” value was 1140 GM.

(Values after US20140064053A1, “NON-RESONANT TWO-PHOTON ABSORPTION MATERIAL, NON-RESONANT TWO-PHOTON ABSORPTION RECORDING MATERIAL, RECORDING MEDIUM, RECORDING/REPRODUCING METHOD AND NON-RESONANT TWO-PHOTON ABSORPTION COMPOUND” (FUJIFILM Corporation, priority 2011, published 2014).)
